molecular target: T1, recombinant human 5-HT6 receptor (Homo sapiens, UniProt P50406); experiment: in vitro radioligand binding, competition for [3H]LSD binding in membranes of HEK293 cells; conditions: [3H]LSD (5 nM), HEK293 cell membranes, pH 7.4, 37° C., 60 min
T1 construct: expressed in transfected cells; cell membranes used
Description: This example illustrates in vitro radioligand binding studies of Compound of Formula I.
The binding activity of compounds of this invention in vitro was determined as follows. Duplicate determinations of ligand affinity are made by competing for binding of [^3H]LSD in cell membranes derived from HEK293 cells stably expressing recombinant human 5-HT6 receptor.
All determinations were made in assay buffer containing 50 mM Tris-HCl, 10 mM MgSO4, 0.5 mM EDTA, 1 mM ascorbic acid, pH 7.4 at 37° C., in a 250 microliter reaction volume. Assay tubes containing [3H] LSD (5 nM), competing ligand, and membrane were incubated in a shaking water bath for 60 min. at 37° C., filtered onto Packard GF-B plates (pre-soaked with 0.3% PEI) using a Packard 96 well cell harvester and washed 3 times in ice cold 50 mM Tris-HCl. Bound [^3H] LSD was determined as radioactive counts per minute using Packard TopCount.
Displacement of [3H]LSD from the binding sites was quantified by fitting concentration-binding data to a 4-parameter logistic equation:
[formula] where Hill is the Hill slope, [ligand] is the concentration of competing radioligand and IC50 is the concentration of radioligand producing half-maximal specific binding of radioligand. The specific binding window is the difference between the Bmax and the basal parameters.
Using the procedures of Example 6, compounds of Formula I were tested and found to be selective 5-HT6 antagonists.

T1 sequence (P50406 whole entry): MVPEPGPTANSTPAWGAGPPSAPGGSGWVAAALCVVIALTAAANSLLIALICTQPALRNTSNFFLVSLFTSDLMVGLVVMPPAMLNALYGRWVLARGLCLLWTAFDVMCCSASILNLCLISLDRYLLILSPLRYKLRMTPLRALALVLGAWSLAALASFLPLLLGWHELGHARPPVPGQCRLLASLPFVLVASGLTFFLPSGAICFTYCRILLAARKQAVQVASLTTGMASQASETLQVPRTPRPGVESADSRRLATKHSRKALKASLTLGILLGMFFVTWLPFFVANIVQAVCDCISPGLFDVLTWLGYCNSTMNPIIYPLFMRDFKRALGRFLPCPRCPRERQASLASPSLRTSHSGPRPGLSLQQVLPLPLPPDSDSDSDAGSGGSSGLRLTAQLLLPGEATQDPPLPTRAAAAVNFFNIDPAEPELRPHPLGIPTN

Structure (SMILES) | Ki [pM]
O=S(=O)(c1ccccc1)c1cc2cccc(N3CCNCC3)c2[nH]1 [Compound 1, 2-Benzenesulfonyl-7-piperazin-1-yl-1H-indole] | 501
CN1CCN(c2cccc3cc(S(=O)(=O)c4ccccc4)[nH]c23)CC1 [Compound 2, 2-Benzenesulfonyl-7-(4-methyl-piperazin-1-yl)-1H-indole] | 794
O=S(=O)(c1cc2cccc(N3CCNCC3)c2[nH]1)c1cccc(Cl)c1Cl [Compound 3, 2-(2,3-Dichloro-benzenesulfonyl)-7-piperazin-1-yl-1H-indole] | 200
CN1CCN(c2cccc3cc(S(=O)(=O)c4cccc(Cl)c4Cl)[nH]c23)CC1 [Compound 4, 2-(2,3-Dichloro-benzenesulfonyl)-7-(4-methyl-piperazin-1-yl)-1H-indole] | 794
O=S(=O)(c1cc2cccc(N3CCNCC3)c2[nH]1)c1ccccc1F [Compound 5, 2-(2-Fluoro-benzenesulfonyl)-7-piperazin-1-yl-1H-indole] | 501
O=S(=O)(c1ccccc1)c1cc2cccc(C3CCNCC3)c2[nH]1 [Compound 6, 2-Benzenesulfonyl-7-piperidin-4-yl-1H-indole] | 631
CN1CCC(c2cccc3cc(S(=O)(=O)c4ccccc4)[nH]c23)CC1 [Compound 7, 2-Benzenesulfonyl-7-(1-methyl-piperidin-4-yl)-1H-indole] | 1000
CN1CCN(c2cccc3cc(S(=O)(=O)c4ccccc4C(F)(F)F)[nH]c23)CC1 [Compound 8, 7-(4-Methyl-piperazin-1-yl)-2-(2-trifluoromethyl-benzenesulfonyl)-1H-indole] | 316
O=S(=O)(c1cc2cccc(N3CCNCC3)c2[nH]1)c1ccccc1C(F)(F)F [Compound 9, 7-Piperazin-1-yl-2-(2-trifluoromethyl-benzenesulfonyl)1H-indole] | 316
CN1CCN(c2cccc3cc(S(=O)(=O)c4cccc(Br)c4)[nH]c23)CC1 [Compound 10, 2-(3-Bromo-benzenesulfonyl)-7-(4-methyl-piperazin-1-yl)-1H-indole] | 251
O=S(=O)(c1cccc(Br)c1)c1cc2cccc(N3CCNCC3)c2[nH]1 [Compound 11, 2-(3-Bromo-benzenesulfonyl)-7-piperazin-1-yl-1H-indole] | 501
